The target of one test is T1, SGLT2 (Homo sapiens, UniProt P31639).
T1 construct: expressed in transfected cells
T1 sequence (P31639 1-672): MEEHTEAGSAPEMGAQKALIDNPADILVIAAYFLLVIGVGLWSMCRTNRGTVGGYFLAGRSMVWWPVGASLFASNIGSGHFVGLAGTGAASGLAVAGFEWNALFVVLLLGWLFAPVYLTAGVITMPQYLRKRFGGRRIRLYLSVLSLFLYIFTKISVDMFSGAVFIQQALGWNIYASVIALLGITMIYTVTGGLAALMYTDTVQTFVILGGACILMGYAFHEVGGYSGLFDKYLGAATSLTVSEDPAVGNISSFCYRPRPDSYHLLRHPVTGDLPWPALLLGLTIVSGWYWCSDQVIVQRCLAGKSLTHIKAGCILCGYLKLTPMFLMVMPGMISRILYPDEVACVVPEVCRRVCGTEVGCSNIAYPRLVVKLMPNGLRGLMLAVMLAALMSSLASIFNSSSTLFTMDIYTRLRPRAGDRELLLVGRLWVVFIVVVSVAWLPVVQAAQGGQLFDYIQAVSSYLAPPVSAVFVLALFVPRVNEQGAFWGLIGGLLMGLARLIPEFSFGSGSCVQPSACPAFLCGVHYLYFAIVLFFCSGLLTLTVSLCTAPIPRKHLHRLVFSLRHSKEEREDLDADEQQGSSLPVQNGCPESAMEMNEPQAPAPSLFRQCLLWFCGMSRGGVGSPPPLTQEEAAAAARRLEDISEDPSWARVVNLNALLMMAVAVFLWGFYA
Kind of test: SGLT2 activity measurement: 14C-AMG uptake in BHK cells transfected with SGLT2. The class given is cell-based. The settings on record: AMG 2 mM, 37° C., 90 min. The text has this:
(§1) The compounds can be tested on their SGLT inhibition properties by means of BHK cells expressing SGLT1 and SGLT2. The production of the cells and the testing can be carried out as described below.
To construct the SGLT2 expression vector (KL224), the SLC5A2 gene (homologous to NM_003041) was amplified from a cDNA library using standard PCR technology and cloned over NheI/XhoI sites into PCI-neo expression vector (Promega) containing neomycin as a selection marker. In this vector, transcription used the enhancer/promoter of human cytomegalovirus and the SV40 polyadenylation signal.
(§2) The final vector KL224 together with an additional vector containing a dihydrofolate reductase gene as a selection marker was introduced into cells. Transfection into BHK21 cells (ATCC CCL-10), cultivated in DMEM medium (GIBCO/BRL), supplemented with 10% foetal calf serum (FCS) and 20 mM glutamine, was carried out using calcium phosphate transfections according to Graham, F. L. and van der Ebb, A. J. (1973), Virology 52: 456 with 5-20 μg of uncut plasmids for 10^7 cells. Stable transfectants were selected in medium containing 1 mg/ml of G418 (GIBCO/BRL) and 20-5000 nM methotrexate as final concentration, where only cells which expressed the neomycin gene and overexpressed the dhfr gene were able to grow. After growth for 2-3 weeks, the cells were cloned (0.5 cells/well) and the clones were investigated for SGLT expression in the radioactive uptake assay.
Principally, uptake of ^14C-α-methyl-D-glucopyranoside (AMG) in, for example, Xenopus oocytes injected with the corresponding cRNA has been described (for example Wen-Sen Lee et al. (1994), J. Biol. Chem. 269, 12032-12039; Guofeng You et al. (1995), J. Biol. Chem. 270, 29365-29371).
(§3) A 96-well cell-based assay was developed and adapted to HTS requirements:
(§4) BHK cells (transfected with SGLT1 or SGLT2) were seeded into 96-well microtitre plates (Cultureplates, Perkin Elmer). After at least 24 h, medium was removed and the cell layer was washed with assay buffer (140 mM NaCl, 2 mM KCl, 1 mM CaCl2, 1 mM MgCl2, 10 mM HEPES, 5 mM Tris, adjusted with 1 M KOH to pH 7.4). After addition of 40 μl of assay buffer, 50 μl of AMG (50 μM for SGLT1 and 2 mM for SGLT2) in the presence or absence of compounds, the cells were incubated in a total volume of 100 μl at 37° C. for 90 min. Supernatant was removed by suction and discarded. The cells were washed and lysed by addition of 50 μl water. After 10 minutes at room temperature 200 μl Microscint 40 (Perkin Elmer) were added. The radioactivity was counted in a Topcount microplate scintillation counter (Perkin Elmer). The non-specific uptake was determined in sodium-free assay buffer (266 mM sucrose, 2 mM KCl, 1 mM CaCl2, 1 mM MgCl2, 10 mM HEPES, 5 mM Tris, adjusted with 1 M KOH to pH 7.4).

A further test deals with T2, SGLT1 (Homo sapiens, UniProt P13866).
T2 construct: expressed in transfected cells
T2 sequence (P13866 1-664): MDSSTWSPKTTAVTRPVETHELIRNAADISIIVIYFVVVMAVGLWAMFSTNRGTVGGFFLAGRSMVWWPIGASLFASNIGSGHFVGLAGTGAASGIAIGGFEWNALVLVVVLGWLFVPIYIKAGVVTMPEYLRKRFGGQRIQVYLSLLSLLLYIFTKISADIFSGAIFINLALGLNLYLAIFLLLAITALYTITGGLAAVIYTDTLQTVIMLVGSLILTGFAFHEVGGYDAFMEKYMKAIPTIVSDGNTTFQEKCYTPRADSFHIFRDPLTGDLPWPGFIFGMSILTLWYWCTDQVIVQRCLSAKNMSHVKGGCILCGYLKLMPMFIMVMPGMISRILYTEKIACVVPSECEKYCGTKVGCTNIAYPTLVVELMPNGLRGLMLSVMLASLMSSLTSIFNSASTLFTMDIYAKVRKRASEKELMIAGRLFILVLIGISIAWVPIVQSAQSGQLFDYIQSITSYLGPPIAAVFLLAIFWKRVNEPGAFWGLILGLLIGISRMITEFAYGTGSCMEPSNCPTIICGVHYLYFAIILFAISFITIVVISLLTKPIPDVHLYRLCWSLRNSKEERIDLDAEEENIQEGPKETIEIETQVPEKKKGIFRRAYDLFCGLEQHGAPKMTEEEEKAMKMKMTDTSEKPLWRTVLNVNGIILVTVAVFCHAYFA
Kind of test: SGLT1 activity measurement: 14C-AMG uptake in BHK cells transfected with SGLT1. The settings on record: AMG 50 μM, 37° C., 90 min. It counts as cell-based.
Excerpt: as §1
To construct the SGLT1 expression vector (KL225), the SLC5A1 gene (homologous to NM_000343) was amplified from a cDNA library using standard PCR technology and cloned over NheI/XhoI sites into pcDNA3.1 expression vector (Invitrogen) containing neomycin as a selection marker. In this vector, transcription uses the enhancer/promoter of human cytomegalovirus.
as §2, with “KL225” for “KL224”, “assay. […]” for “assay.”
as §3, §4

Where only a bound is given, the exact number is not on record here.

As a reminder, the IC50 is the midpoint of a concentration-inhibition curve. Read a high IC50 as a need for much substance.

For the compound `Cc1cccc(C)c1Nc1c(-c2c(O)cccc2OCC(N)=O)nc2ccc(F)cn12` [Compound A175, 2-[2-(Aminocarbonylmethoxy)-6-hydroxyphenyl]-3-(2,6-dimethylphenylamino)-6-fluoroimidazo-[1,2-a]pyridine], the half-maximal inhibitory concentration (IC50) is 10 to 1000 nM at SGLT2 and greater than 10000 nM against SGLT1.
The corresponding values for `Cc1cccc(C)c1Nc1c(-c2ccccc2OCC(N)=O)nc2cc(C#N)ccn12` [Compound A210, 2-[2-(Aminocarbonylmethoxy)phenyl]-3-(2,6-dimethylphenylamino)-7-cyanoimidazo[1,2-a]-pyridine] are greater than 10000 nM and greater than 10000 nM.
In the same order, the values of `Cc1cccc(C)c1Nc1c(-c2ccccc2OCC(N)=O)nc2ccc(C#N)cn12` [Compound A209, 2-[2-(Aminocarbonylmethoxy)phenyl]-3-(2,6-dimethylphenylamino)-6-cyanoimidazo[1,2-a]-pyridine] are 1000 to 10000 nM and greater than 10000 nM.
The corresponding values for `Cc1cccc(C)c1Nc1c(-c2c(C)cc(OCCO)cc2OCC(N)=O)nc2ccc(F)cn12` [Compound A186, 2-[2-(Aminocarbonylmethoxy)-4-(2-hydroxy-ethoxy)-6-methylphenyl]-3-(2,6-dimethylphenyl-amino)-6-fluoroimidazo[1,2-a]pyridine] are 10 to 1000 nM and greater than 10000 nM.
With `Cc1cccc(C)c1Nc1c(-c2c(OCC(N)=O)ccc3ccccc23)nc2ccc(F)cn12` [Compound A180, 2-{1-[3-(2,6-Dimethylphenylamino)-6-fluoro-imidazo[1,2-a]pyridin-2-yl]naphthalen-2-yloxy}-acetamide], the values for the concentration for half-maximal inhibition (IC50) against SGLT2 and at SGLT1 were 10 to 1000 nM and 1000 to 10000 nM, respectively.
For `CCc1cc(OC)cc(OCC(N)=O)c1-c1nc2c(F)cc(F)c(N)n2c1Nc1c(C)cccc1C` [Compound A227, 2-[2-(Aminocarbonylmethoxy)-4-methoxy-6-ethylphenyl]-3-(2,6-dimethylphenylamino)-5-amino-6,8-difluoroimidazo[1,2-a]pyridine], the IC50 is 10 to 1000 nM against SGLT2 and 1000 to 10000 nM on SGLT1.
The corresponding values for `COc1ccc(-c2nc3ccc(F)cn3c2Nc2c(C)cccc2C)c(OCC(N)=O)c1` [Compound A211, 2-[2-(Aminocarbonylmethoxy)-4-methoxy-phenyl]-3-(2,6-dimethylphenylamino)-6-fluoro-imidazo[1,2-a]pyridine] are 10 to 1000 nM and greater than 10000 nM.
In the same order, the values of `Cc1cccc(C)c1Nc1c(-c2c(C)cc(OCC(O)CO)cc2OCC(N)=O)nc2ccc(F)cn12` (stereo not drawn) [Compound A208, 2-[2-(Aminocarbonylmethoxy)-4-(2,3-dihydroxy-propoxy)-6-methylphenyl]-3-(2,6-dimethylphenyl-amino)-6-fluoroimidazo[1,2-a]pyridine] are 10 to 1000 nM and greater than 10000 nM.
In the same order, the values of `CCc1cc(OC2CCCCO2)cc(OCC(N)=O)c1-c1nc2ccc(F)cn2c1Nc1c(C)cccc1C` (stereo not drawn) [Compound A182, 2-[2-(Aminocarbonylmethoxy)-4-(tetra-hydropyran-2-yloxy)-6-ethylphenyl]-3-(2,6-dimethylphenylamino)-6-fluoroimidazo[1,2-a]-pyridine] are 10 to 1000 nM and greater than 10000 nM.
Regarding `COc1cc(Cl)c(-c2nc3ccc(F)cn3c2Nc2c(C)cccc2C)c(OCC(N)=O)c1` [Compound A197, 2-[2-(Aminocarbonylmethoxy)-4-methoxy-6-chlorophenyl]-3-(2,6-dimethylphenylamino)-6-fluoroimidazo[1,2-a]pyridine], the IC50 at SGLT2 was 10 to 1000 nM; on SGLT1 it was greater than 10000 nM.
The corresponding values for `COc1cc(C)c(-c2nc3c(F)cc(F)cn3c2Nc2c(Cl)cccc2Cl)c(OCC(N)=O)c1` [Compound A226, 2-[2-(Aminocarbonylmethoxy)-4-methoxy-6-methylphenyl]-3-(2,6-dichlorophenylamino)-6,8-difluoroimidazo[1,2-a]pyridine] are 10 to 1000 nM and 1000 to 10000 nM.
Turning to `NC(=O)COc1ccccc1-c1nc2ccccn2c1Nc1c(Cl)cccc1Cl` [Compound A5, 2-[2-(Aminocarbonylmethoxy)phenyl]-3-(2,6-di-chlorophenylamino)imidazo[1,2-a]pyridine], the IC50 was 10 to 1000 nM on SGLT2 and greater than 10000 nM on SGLT1.
With `Cc1cccc(C)c1Nc1c(-c2c(C)cc(OC3CCCCO3)cc2OCC(N)=O)nc2ccc(F)cn12` (stereo not drawn) [Compound A177, 2-[2-(Aminocarbonylmethoxy)-4-(tetra-hydropyran-2-yloxy)-6-methylphenyl]-3-(2,6-dimethylphenylamino)-6-fluoroimidazo[1,2-a]-pyridine], the figures for the IC50 on SGLT2 and on SGLT1 were 10 to 1000 nM and greater than 10000 nM, respectively.
In the same order, the values of `CCc1cccc(OCC(N)=O)c1-c1nc2ccc(F)cn2c1Nc1c(C)cccc1C` [Compound A240, 2-[2-(Aminocarbonylmethoxy)-6-ethylphenyl]-3-(2,6-dimethylphenylamino)-6-fluoroimidazo-[1,2-a]pyridine] are 10 to 1000 nM and 1000 to 10000 nM.
`COc1cc(C)c(-c2nc3ccc(F)cn3c2Nc2c(C)cc([N+](=O)[O-])cc2C)c(OCC(N)=O)c1` [Compound A254, 2-[2-(Aminocarbonylmethoxy)-4-methoxy-6-methylphenyl]-3-(2,6-dimethyl-4-nitrophenyl-amino)-6-fluoroimidazo[1,2-a]pyridine]: the results for the IC50 against SGLT2 and against SGLT1 were 10 to 1000 nM and greater than 10000 nM, respectively.
